Counter-ions that a name gives are not always drawn. Like-named read-outs stand apart in the source and are kept apart here.
What was measured:
[1] = as mentioned in U.S. Pat. No. 6,518,284 B2 and EP1002794; cited from earlier work
[2] = hygroscopicity; type: physicochemical
[3] = studies of stability under forced conditions; type: physicochemical
Procedure: Additionally, the compound of formula I has shown excellent stability properties. The compound of formula I has remained stable for at least 6 months in studies of stability under forced conditions at 50 and 60° C., as well as at 40° C. and 75% humidity. This represents more than 2 years of stability under normal conditions.

[4] = system: immobility in the forced swimming test; conditions: rats, 30 mg/kg, p.o.; cited from earlier work
[5] = system: social interaction time; conditions: rats, 14 days, 30 mg kg(−1) day(−1), p. o.; cited from earlier work
[6] = system: apomorphine-induced hypothermia; conditions: mice, orally administered, acute; cited from earlier work
[7] = system: hyperactivity induced by olfactory bulbectomy; conditions: rats, chronic administration 14 days, 30 mg kg(−1) day(−1), p. o.; cited from earlier work
[8] = system: immobility in the forced swimming test; conditions: mice, 30 mg/kg, p.o.; cited from earlier work
[9] = system: 5-HTP-induced syndrome; conditions: mice, orally administered, acute; cited from earlier work
[10] = system: dorsal raphe serotonergic neurones; conditions: in vivo; cited from earlier work
[11] = system: immobility in the tail suspension test; conditions: mice, orally administered, acute; cited from earlier work

For `Fc1cccc(OC(c2ccccc2)C2CCNCC2)c1` (racemic) [4-[(3-fluorophenoxy)phenylmethyl]piperidine], the solubility in water [1] is listed as “insoluble in water”.
With `CS(=O)(=O)O.Fc1cccc(OC(c2ccccc2)C2CCNCC2)c1` (stereo not drawn) [compound of formula I, 4-[(3-fluorophenoxy)phenylmethyl]piperidine methanesulfonic acid salt] the hygroscopicity [2] was “not hygroscopic”, the “time remained stable under forced conditions” value (“time remained stable” for short) ([3]; 40° C. and 75% humidity) was “at least 6 months” and the “time remained stable” value ([3]; 50° C.) was “at least 6 months”. The “time remained stable” value ([3]; 60° C.) was “at least 6 months” and the “stability under normal conditions” value ([3]; normal conditions, extrapolated from forced conditions) was “more than 2 years”.
For `Fc1cccc(O[C@H](c2ccccc2)C2CCNCC2)c1` [(S)-4-[(3-fluorophenoxy)phenylmethyl]piperidine], the “immobility in the forced swimming test” value [4] is listed as “decreases the immobility”, the social interaction time [5] is listed as “significantly increases” and the “ED50, antagonism of hypothermia induced by a high dose of apomorphine” value [6] is listed as 2 mg/kg. For the same compound, the “hyperactivity induced by olfactory bulbectomy” value [7] was “attenuates the hyperactivity”, the “immobility in the forced swimming test” value [8] was “decreases the immobility” and the “minimal effective dose (MED), potentiation of 5-HTP-induced syndrome” value [9] was 10 mg/kg. For the same compound, the “ED50, decrease of electrical activity of dorsal raphe serotonergic neurones” value [10] was 0.5303 mg/kg and the “MED, reduction of immobility in the tail suspension test” value [11] was 10 mg/kg.
For `Cl.Fc1cccc(O[C@H](c2ccccc2)C2CCNCC2)c1` [(S)-4-[(3-fluorophenoxy)phenylmethyl]piperidine hydrochloric acid salt], the hygroscopicity [2] was “hygroscopic” and the melting point was 55 to 60 °C.
For `Fc1cccc(O[C@H](c2ccccc2)C2CCNCC2)c1` (as salt: fumaric acid salt) [(S)-4-[(3-fluorophenoxy)phenylmethyl]piperidine], the melting point was 105 to 108 °C.
With `Fc1cccc(O[C@H](c2ccccc2)C2CCNCC2)c1.O=S(=O)(O)O` [(S)-4-[(3-fluorophenoxy)phenylmethyl]piperidine sulphuric acid salt] the hygroscopicity [2] was “hygroscopic”.

Reference: US20070265306A1, “4-[(3-fluorophenoxy)phenylmethyl]piperidine methanesulfonate: uses, process of synthesis and pharmaceutical compositions” (priority 2006, published 2007)
